Here are results for 3 compounds from patent US20100210735A1, “Modulating the Activity of Nuclear Receptors in Order to Treat Hypoxia-Related Disorders” (UNIVERSITY OF FLORIDA RESEARCH FOUNDATION, INC., priority 2007, published 2010).

“Also recorded” adds a separate entry of the source.

In data set [1] the test system is HIF-dependent reporter (HRE-Luc). Nature of the data set: HIF-dependent luciferase reporter (HRE-Luc) assay in SKBR3 cells. The data set is classed as cell-based, human. As to conditions: DP (100 uM), DES (50 uM) or 4HT (10 uM). How it is done:
All human cancer cells were maintained in the following basal media (Invitrogen) supplemented with 10% fetal bovine serum: breast cancer cell line MDA-MB-435 in DMEM/F12, melanoma WM266 cells in McCoy's 5A, breast cancer SKBr3 in DMEM. […] The antibiotic G418 was added in the medium (800 ug/mL) for selection of stable dnERR transfectants. Anaerobic culture was achieved using GasPak Pouch System (BD Biosciences). The HIF-dependent reporter HRE-Luc was generated by inserting the two copies of synthetic HRE from PGK1 into a pGL3 luciferase vector. (Promega) Epo-Luc and PGK1-Luc were created by cloning the PCR-amplified HIF-dependent enhancer and promoter regions of Epo and PGK1, respectively, Full-length EST clones encoding ERR-α, -β, -γ, HIF-1α, -2α, -1β were used for in vitro translation (Promega TNT kit), production of GST fusions by cloning into the pGEX vector, and mammalian expression by cloning into modified pcDNA3 vectors with Flag or HA epitope tags. ERR Deletion mutants were generated by PCR. dnERR was constructed by PCR amplification of ERRβ DBD and Engrailed repression domain, followed by a three-way ligation into pcDNA3. Anti-Flag, -HA, -ERRα, and -HIF1α antibodies were obtained from Sigma, Covance, Upstate, and BD Biosciences and Novus, respectively.
A general note: In a reporter assay the amount or activity of a reporter protein is the signal.

For another data set, the target named is ERRγ-HIF association (Homo sapiens, UniProt P62508). The settings on record: DES (50 μM) or 4HT (10 μM); GST pulldown.
Sequence of ERRγ-HIF association (P62508 whole entry): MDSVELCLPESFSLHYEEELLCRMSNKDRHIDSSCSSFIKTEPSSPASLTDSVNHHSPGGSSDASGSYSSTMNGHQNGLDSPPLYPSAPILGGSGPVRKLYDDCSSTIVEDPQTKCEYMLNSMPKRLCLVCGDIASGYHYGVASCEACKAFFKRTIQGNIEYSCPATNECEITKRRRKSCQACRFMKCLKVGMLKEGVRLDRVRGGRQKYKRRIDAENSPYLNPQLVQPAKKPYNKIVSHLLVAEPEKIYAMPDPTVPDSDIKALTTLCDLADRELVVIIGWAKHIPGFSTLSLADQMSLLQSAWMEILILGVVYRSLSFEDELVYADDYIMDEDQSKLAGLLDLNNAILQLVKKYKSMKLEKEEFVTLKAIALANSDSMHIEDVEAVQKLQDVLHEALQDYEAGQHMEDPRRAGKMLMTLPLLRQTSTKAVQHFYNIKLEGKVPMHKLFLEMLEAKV
Sequence of ERRγ-HIF association (Q16665 whole entry partner): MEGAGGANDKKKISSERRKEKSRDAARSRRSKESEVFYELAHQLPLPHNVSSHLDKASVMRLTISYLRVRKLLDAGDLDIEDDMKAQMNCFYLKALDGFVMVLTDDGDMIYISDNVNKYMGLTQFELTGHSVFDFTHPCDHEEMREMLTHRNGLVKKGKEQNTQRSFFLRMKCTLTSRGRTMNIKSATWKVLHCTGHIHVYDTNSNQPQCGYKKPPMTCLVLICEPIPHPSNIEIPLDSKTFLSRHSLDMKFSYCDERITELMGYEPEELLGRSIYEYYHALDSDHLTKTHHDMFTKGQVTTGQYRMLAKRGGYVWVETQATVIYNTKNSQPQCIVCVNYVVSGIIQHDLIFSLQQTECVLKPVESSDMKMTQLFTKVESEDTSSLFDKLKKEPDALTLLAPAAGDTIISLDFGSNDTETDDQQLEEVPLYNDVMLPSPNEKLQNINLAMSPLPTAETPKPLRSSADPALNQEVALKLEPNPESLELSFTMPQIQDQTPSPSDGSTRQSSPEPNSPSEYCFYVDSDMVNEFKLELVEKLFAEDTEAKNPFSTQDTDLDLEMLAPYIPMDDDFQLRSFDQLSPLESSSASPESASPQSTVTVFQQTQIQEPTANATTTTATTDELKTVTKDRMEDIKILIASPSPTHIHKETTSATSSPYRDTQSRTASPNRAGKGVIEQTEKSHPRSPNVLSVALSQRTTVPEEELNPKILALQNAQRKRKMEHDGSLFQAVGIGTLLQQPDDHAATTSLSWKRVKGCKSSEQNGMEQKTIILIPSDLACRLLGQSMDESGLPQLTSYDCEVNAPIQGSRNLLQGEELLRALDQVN
Sequence of ERRγ-HIF association (P27540 whole entry partner): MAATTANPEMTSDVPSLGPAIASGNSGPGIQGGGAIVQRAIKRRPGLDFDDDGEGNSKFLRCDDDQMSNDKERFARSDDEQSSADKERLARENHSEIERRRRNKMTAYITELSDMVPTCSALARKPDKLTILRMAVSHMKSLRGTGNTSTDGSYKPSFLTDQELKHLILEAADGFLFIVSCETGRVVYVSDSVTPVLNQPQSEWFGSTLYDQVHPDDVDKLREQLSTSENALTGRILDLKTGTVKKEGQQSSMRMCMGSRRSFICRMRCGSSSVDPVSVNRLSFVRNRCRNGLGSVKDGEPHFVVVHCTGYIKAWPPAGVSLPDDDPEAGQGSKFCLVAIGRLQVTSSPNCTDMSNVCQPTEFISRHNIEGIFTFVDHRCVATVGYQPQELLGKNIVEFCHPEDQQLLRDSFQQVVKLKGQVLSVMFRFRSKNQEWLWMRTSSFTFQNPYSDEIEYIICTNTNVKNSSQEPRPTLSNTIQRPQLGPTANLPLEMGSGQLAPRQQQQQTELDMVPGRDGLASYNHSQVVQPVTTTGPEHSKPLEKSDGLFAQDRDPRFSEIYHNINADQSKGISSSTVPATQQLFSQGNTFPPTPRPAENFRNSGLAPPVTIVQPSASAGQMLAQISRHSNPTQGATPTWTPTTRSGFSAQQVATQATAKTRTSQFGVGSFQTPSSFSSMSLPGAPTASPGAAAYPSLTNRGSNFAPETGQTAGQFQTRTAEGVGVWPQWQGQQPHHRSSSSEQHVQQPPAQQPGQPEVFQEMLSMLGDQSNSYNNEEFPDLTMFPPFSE
Another data set concerns ERRs (ERRα, ERRβ, ERRγ). The settings on record: literature (Tremblay et al, 2001; Ariazi and Jordan, 2006); cited from earlier work.
The subject of data set [2] is hypoxic genes (VEGF, PGK1, LDHA, Eno1, Glut1) in MDA-MB-435 cells. Nature of the data set: Northern blot of hypoxic gene expression in MDA-MB-435 breast cancer cells. The data set is classed as cell-based, human. As to conditions: severe hypoxia, DES (50 uM). From the text:
(§1) For Northern blot analysis, nylon membranes carrying total RNA samples were hybridized with probes made from cDNA fragments encoding for VEGF, PGK1, lactate dehydrogenase A(LDHA), Enolase 1 (Eno1), and Glucose transporter 1 (Glut1). The 18s rRNA and β-actin served as loading controls.
All human cancer cells were maintained in the following basal media (Invitrogen) supplemented with 10% fetal bovine serum: breast cancer cell line MDA-MB-435 in DMEM/F12, melanoma WM266 cells in McCoy's 5A, breast cancer SKBr3 in DMEM. […] The antibiotic G418 was added in the medium (800 ug/mL) for selection of stable dnERR transfectants. Anaerobic culture was achieved using GasPak Pouch System (BD Biosciences).
All procedures followed standard molecular biology techniques. […] HIFα was not stable.
The HIF-mediated hypoxic response is defined by transcriptional activation of many hypoxic genes. We asked whether inhibition of ERR was capable of blocking hypoxic-induced transcription of endogenous genes.

In data set [3] the test system is hypoxic genes (VEGF, glycolytic enzymes) in SKBR3 cells. The experiment in a line: Northern blot of hypoxic gene expression in SKBR3 breast cancer cells. The settings on record: DP (100 uM), DES (50 uM). In kind it is cell-based, human. From the text:
For Northern blot analysis, nylon membranes carrying total RNA samples were hybridized with probes made from cDNA fragments encoding for VEGF, PGK1, lactate dehydrogenase A(LDHA), Enolase 1 (Eno1), and Glucose transporter 1 (Glut1). The 18s rRNA and β-actin served as loading controls. […] All human cancer cells were maintained in the following basal media (Invitrogen) supplemented with 10% fetal bovine serum: breast cancer cell line MDA-MB-435 in DMEM/F12, melanoma WM266 cells in McCoy's 5A, breast cancer SKBr3 in DMEM. […] The antibiotic G418 was added in the medium (800 ug/mL) for selection of stable dnERR transfectants. Anaerobic culture was achieved using GasPak Pouch System (BD Biosciences). All procedures followed standard molecular biology techniques. […] The HIF-mediated hypoxic response is defined by transcriptional activation of many hypoxic genes.

The subject of a further data set is HIF1α. Nature of the data set: Western blot analysis for HIF1α in SKBR3 cells. The data set is classed as cell-based, human. The settings on record: DP and DES. From the text: HIF1α was detected with anti-HIF1α antibody. The same blot was reprobed with an antitubulin antibody. Tubulin served as a loading control. All procedures followed standard molecular biology techniques.

Data set [4] has as its system MDA-MB-435 breast cancer xenograft. Nature of the data set: Tumor xenograft experiment, human MDA-MB-435 breast cancer cells in SCID mice. As to conditions: 750 μg DES daily, oral. In kind it is in vivo. How it is done:
Tumor volume was measured weekly.
Tumor xenografts were harvested at time of necropsy (after 3 weeks of treatment) and weighed. […] Scale Bars represent average tumor weight.
MDA-MB-435 cells (5×10^6) were resuspended in a mixture of 100 uL of PBS and Matrigel (BD Biosciences, Bedford, Mass.; 2:1 ratio), and injected subcutaneously into the fourth mammary gland fat pad of 6- to 8-week-old female severe combined immunodeficient (SCID) mice. […] The mice bearing tumor xenografts were randomly divided into two groups. […] Tumors were serially measured weekly with a ruler and the tumor volumes were calculated with the following formula: volume (mm^3)=width^2× length/2. After 3 weeks of treatment, the mice were euthanized. All animal studies were approved by the Institutional Animal Care and Use Committee (IACUC) at the University of Florida.
At the end of treatment, tumors were excised and analyzed.

For data set [5], the system named is tumor angiogenesis in MDA-MB-435 xenograft. The experiment in a line: CD34 immunostaining of tumor xenografts for blood vessel density. The data set is classed as in vivo, mice. As to conditions: 750 μg DES daily, oral, after 3 weeks of treatment. The procedure:
Tumor transplants were processed and subjected to CD34 immunostaining for blood vessels (brown staining). […] Scale bars, 65 μm. […] Microvessel density was determined by counting the number of CD34 positive blood vessels from four randomly chosen visual fields from each group of tumors. The average number in the fields was taken as the mean of vessel density of the group. Tumors were dissected at time of necropsy, weighed, and fixed in 4% paraformaldehyde in PBS overnight. Samples were dehydrated in 70% ethanol, paraffin embedded, and sectioned ([…]). Deparaffinized sections were stained for CD34 to assess blood vessel density. Briefly, samples were microwaved in sodium citrate (pH 6) for 20 min. for antigen retrieval, and treated with 3% H2O2 at room temperature for 20 min. to quench endogenous peroxidase activity. Sections were then blocked in 1.5% rabbit serum and incubated with rat anti-mouse CD34 antibody (1:100 dilution, clone MEC14.7, BioLegend), followed by biotinylated rabbit anti-rat IgG (1:200 dilution; Vector Laboratories). Detection was done with avidin-biotin-HRP complex (Vector laboratories) and di-aminobenzidin as chromogen. […] As angiogenesis is a key part of hypoxic response and is required to support tumor growth beyond a certain threshold size, we assessed tumor vascularization by performing immunohistochemical staining using anti-CD34 antibody. […]

The next data set has as its system pregnant female mice. As to conditions: DES 500 μg/mouse; literature (Tremblay et al, 2001); cited from earlier work.
Data set [6] has as its system hypoxic genes in A549 lung cancer cells. The experiment in a line: Hypoxic gene expression in A549 lung cancer cells. In kind it is cell-based, human. The settings on record: A549 lung cancer cells treated with DP and RES.
Description: as §1

Description for ERRγ-HIF association: In vitro translated HIF proteins were mixed with GST or GST-ERR fusions and assayed for binding.
All procedures followed standard molecular biology techniques. […] For GST binding and IP, we used the following binding buffer (20 mM Tris, pH7.5, 150 mM NaCl, 0.5% NP-40, and protease inhibitor cocktail (Roche)). […] In later experiments, we added proteasome inhibitor MG132 (10 uM) into the buffer.
We examined whether mammalian HIF and ERR proteins interact with each other in vitro by the common glutathione S-transferase (GST) pulldown assay. We fused full-length cDNAs of ERRα, β, and γ to GST and generated fusion proteins in bacteria. We assayed them for binding to in vitro translated full-length HIF1α, HIF2α, and HIF1β.
These compounds were tested to determine whether they might interfere with the ERR-HT interaction.

Turning to 4-hydroxytamoxifen [4HT], the “activation of the HIF-dependent reporter by DP-induced HIF stabilization” value in data set [1] is on record as “Lack of effects”. The “effect on ERRγ-HIF association” value at ERRγ-HIF association is given as “resistant; also recorded: insensitive”. Also, the “activity on ERRs / ERR-coactivator interaction” value with ERRs (ERRα, ERRβ, ERRγ) was “selectively inhibits ERRγ”.

On to `CC/C(=C(/CC)c1ccc(O)cc1)c1ccc(O)cc1` [DES, diethylstilbestrol], for which the “activation of the HIF-dependent reporter by DP-induced HIF stabilization” value in data set [1] is recorded as “severely impaired; also recorded: attenuates HIF activity”. Besides, the “transcriptional induction of HIF target genes” value in data set [2] and in data set [3] was “largely abolished” each time. In addition, the “HIF1α protein stabilization by DP” value with HIF1α was “stabilized normally”. In [4] (3 weeks, SCID mice), the “tumor volumes and growth rate versus vehicle-treated control” value is listed as “dramatic reduction”. The “tumor xenograft growth upon treatment” value in data set [4] (SCID mice) is listed as “essentially stopped growing”. Moreover, the “tumor weight at end of treatment versus vehicle-treated mice” value in data set [4] (after 3 weeks of treatment) is listed as “about 3 times lighter”. Further, the “micro vascular density in tumors (CD34 positive blood vessels)” value in data set [5] was “clear reduction; also recorded: few blood vessels; also recorded: reduced”. For the same compound, in the data set on ERRs (ERRα, ERRβ, ERRγ), the “activity on ERRs / ERR-coactivator interaction” value is listed as “antagonist of all three ERRs”. Moreover, the “effect in pregnant female mice” value with pregnant female mice was “placental defects”.

As to `Oc1ccc(C=Cc2cc(O)cc(O)c2)cc1` [resveratrol], the hypoxia-induced gene transcription result was “manifested inhibitory activities” in [6] and “reduced hypoxic gene expression” in [6] (listed as Resveratrol). Moreover, the “activity on ERRs / ERR-coactivator interaction” value in the data set with ERRs (ERRα, ERRβ, ERRγ) is “capable of dissociating coactivator complexes from all three ERRs, albeit at higher concentrations than DES”.
